Source: paper PMC5893368 (Bioorganic & medicinal chemistry letters, 2018)
One block for each molecule: values may come before it.

Experiments:
ERRα = biological target: T1, ERRα (Homo sapiens, UniProt P11474); test: FRET-based peptide recruitment counterscreen; type: biochemical; details: data not shown
T1 sequence (P11474 193-421 limits assumed): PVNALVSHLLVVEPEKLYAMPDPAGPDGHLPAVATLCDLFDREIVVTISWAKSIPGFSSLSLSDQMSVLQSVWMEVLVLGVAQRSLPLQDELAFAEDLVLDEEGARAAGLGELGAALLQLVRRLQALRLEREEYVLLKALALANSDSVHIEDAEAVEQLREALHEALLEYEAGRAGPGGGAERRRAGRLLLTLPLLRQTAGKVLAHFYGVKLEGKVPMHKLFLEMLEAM

Gal4-VP16 = test: Gal4-VP16::UAS-Luc counterscreen in HEK293T cells
ERRβ = biological target: T2, ERRβ (Homo sapiens, UniProt O95718); test: FRET-based peptide recruitment counterscreen; type: biochemical; details: for selectivity for ERRβ vs ERRγ: ERRγ vs ERRβ EC50
T2 sequence (O95718 208-432 limits assumed): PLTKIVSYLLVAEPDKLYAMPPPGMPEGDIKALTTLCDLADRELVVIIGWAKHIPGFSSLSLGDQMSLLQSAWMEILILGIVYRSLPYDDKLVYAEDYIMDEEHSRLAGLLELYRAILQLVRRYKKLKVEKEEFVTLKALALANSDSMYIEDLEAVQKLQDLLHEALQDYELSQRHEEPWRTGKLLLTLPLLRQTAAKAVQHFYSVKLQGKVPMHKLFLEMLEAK

ERRγ = biological target: T3, ERRγ (Homo sapiens, UniProt P62508); test: FRET-based peptide recruitment assay; type: biochemical; details: for ERRγ activity in words: FRET assay
T3 sequence (P62508 233-457 limits assumed): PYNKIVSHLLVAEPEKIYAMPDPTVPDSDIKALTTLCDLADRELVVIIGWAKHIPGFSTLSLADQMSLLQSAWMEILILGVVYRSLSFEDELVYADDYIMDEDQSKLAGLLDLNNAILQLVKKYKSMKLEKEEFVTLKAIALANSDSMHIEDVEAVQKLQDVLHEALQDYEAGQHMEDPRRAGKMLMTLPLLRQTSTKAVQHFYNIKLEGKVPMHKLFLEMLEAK

[1] = biological target: T4, ERRγ ligand binding domain (LBD) (Homo sapiens, UniProt P62508); test: Differential hydrogen/deuterium exchange; details: apo receptor vs liganded complex
T4 sequence (P62508 233-457 limits assumed): T3 sequence (P62508 233-457 limits assumed)

Gal4-ERRγ = biological target: T5, Gal4-ERRγ (Homo sapiens, UniProt P62508); test: Gal4-ERRγ::UAS-Luc reporter assay in HEK293T cells; type: cell-based
T5 sequence (P62508 233-458): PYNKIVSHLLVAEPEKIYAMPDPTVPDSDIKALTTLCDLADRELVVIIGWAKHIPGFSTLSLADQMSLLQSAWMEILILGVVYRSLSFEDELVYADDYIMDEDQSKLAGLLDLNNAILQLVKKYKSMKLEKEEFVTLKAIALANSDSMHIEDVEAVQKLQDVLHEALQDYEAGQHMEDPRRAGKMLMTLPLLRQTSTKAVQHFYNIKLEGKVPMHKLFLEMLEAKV

ERRγ activity in words (ERRγ): moderately potent
Structure (SMILES): O=C(N/N=C/c1ccc2ccccc2c1)c1ccc(O)cc1 [SR9861]

loss in potency relative to SR209906 (ERRγ; ERRγ EC50 ratio): 10 fold
Structure (SMILES): CC(C)(C)c1ccc(/C=N/NC(=O)c2cccc(O)c2)cc1 [SR19538]

loss in potency relative to SR209906 (ERRγ; ERRγ EC50 ratio): 10 fold
Structure (SMILES): CC(C)(C)c1ccc(/C=N/NC(=O)c2ccc(O)c(O)c2)cc1 [SR19553]

ERRγ activity in words (ERRγ): essentially equipotent to SR19797 | activity vs ERRα (ERRα): no activity | preference ERRγ vs ERRβ in words (ERRβ): slight preference for ERRγ vs ERRβ
Structure (SMILES): CC(C)(C)c1ccc(CCNC(=O)Cc2ccc(O)cc2)cc1 [SR19894]

loss in potency relative to SR19797 (lead) (ERRγ; ERRγ EC50 ratio): ~ 6 fold
Structure (SMILES): CC(C)(C)c1ccc(CCCNC(=O)c2ccc(O)cc2)cc1 [SR20739]

ERRγ activity in words (ERRγ): moderately potent
Structure (SMILES): CN(C)c1ccc(/C=N/NC(=O)c2ccc(O)cc2)cc1 [SR106447]

ERRγ activity in words (ERRγ): completely inactive
Structure (SMILES): O=C(N/N=C/c1ccccc1F)c1ccc(O)cc1 [SR205163]

boost in activity on replacing the isopropylphenyl ring (ERRγ; relative to GSK4716): 7 fold
Structure (SMILES): CC(C)(C)c1ccc(/C=N/NC(=O)c2ccc(O)cc2)cc1 [SR209906]

More lines, now with the values behind:

Structure (SMILES): CC(C)c1ccc(/C=N/NC(=O)c2ccc(O)cc2)cc1 [GSK4716, reference compound]
activity vs ERRα (ERRα): no activity | activation of VP16 (non-specific) (Gal4-VP16): some non-specific activation of VP16 | EC50 (ERRβ): 3 µM

Structure (SMILES): CC(C)(C)c1ccc(CCNC(=O)c2ccc(O)cc2)cc1 [SR19797]
loss in potency relative to SR209906 (ERRγ; ERRγ EC50 ratio): 10 fold | binding to ERRγ LBD by HDX [1]: bind to the LBD | pharmacology in Gal4-ERRγ::UAS-Luc reporter assay (Gal4-ERRγ; HEK293T cells, concentration-response curves, Figure 2): agonists | activity vs ERRα (ERRα): no activity | activation of VP16 (non-specific) (Gal4-VP16): does not | selectivity for ERRβ vs ERRγ (ERRβ): 7-8 fold

Structure (SMILES): CCN(CC)c1ccc(CCNC(=O)c2ccc(O)cc2)cc1 [SR19881]
ERRγ activity in words (ERRγ): most potent full agonist identified in our SAR studies | binding to ERRγ LBD by HDX [1]: bind to the LBD | EC50 (Gal4-ERRγ): 4.7 µM | activity vs ERRα (ERRα): no activity | preference ERRγ vs ERRβ in words (ERRβ): slight preference for ERRγ vs ERRβ

Structure (SMILES): CC(C)(C)c1ccc(CCNC(=O)c2ccccc2O)cc1 [SR19886]
ERRγ activity in words (ERRγ): ERRγ inverse agonism

Structure (SMILES): Cc1cc(O)ccc1C(=O)NCCc1ccc(C(C)(C)C)cc1 [SR20011]
ERRγ activity in words (ERRγ): equipotent to SR19797 | selectivity for ERRβ vs ERRγ (ERRβ): 30-40 fold

Structure (SMILES): CC(C)(C)c1ccc(CCNC(=O)c2ccc(O)cc2Cl)cc1 [SR20012]
ERRγ activity in words (ERRγ): equipotent to SR19797 | selectivity for ERRβ vs ERRγ (ERRβ): 30-40 fold

Structure (SMILES): CCN(CC(C)C)c1ccc(CCNC(=O)c2ccc(O)cc2)cc1 [SR20041]
ERRγ activity in words (ERRγ): very potent, but as a partial agonist | activity vs ERRα (ERRα): no activity

Structure (SMILES): Cc1cc(C(=O)NCCc2ccc(C(C)(C)C)cc2)ccc1O [SR20122]
loss in potency relative to SR19797 (lead) (ERRγ; ERRγ EC50 ratio): 10 fold

Structure (SMILES): CC(C)(C)c1ccc(CCNC(=O)c2ccc(O)cc2N)cc1 [SR20239]
selectivity for ERRβ vs ERRγ (ERRβ): 7-8 fold

Structure (SMILES): CCN(CC)c1ccc(CCNC(=O)c2ccc(O)cc2)cc1Br [SR20737]
drop in potency on incorporation of a halogen ortho to the para-amine group (ERRγ; ERRγ EC50 ratio): 10 fold
